Data on one substance can be found in patent US5936082A, “Metallocorrinoids as biologically compatible carriers of pharmacological agents” (The University of Akron, priority 1997, dated 1999).

This series in a line: In vitro nitric oxide release and content by nitrogen oxides analyzer (Monitor Labs Model 8440). The format is physicochemical. On the procedure:
The nitric oxide content and kinetic release profile, shown in FIG. 2, of nitrosylcobalamin was determined in vitro using a nitrogen oxides analyzer (Monitor Labs Model 8440). The amount of NO-"loading" was determined by examining the cumulative NO release, characterized at pH 4.9, 32° C., during a time span of 675.5 hours. The total NO released was 4,610 nmol NO, 38% loading based on the theoretical maximum of 11,890 nmol. The first twenty hours of NO release was characterized in great detail, with data readings taken every 15 minutes for the first eight hours and every half hour thereafter, resulting in the production of 260 nmol NO. […] At pH 10.0, NO release was undetected even though the sample size was increased to 20.6 mg.

For nitrosylcobalamin, the “NO produced at pH 5.0” value (5 mg sample, pH 5.0, 37° C., 86 hour time span) is 95.0 nmol. Besides, the “NO produced at pH 6.0” value (5 mg sample, pH 6.0, 37° C., 86 hour time span) is recorded as 2.4 nmol. For the same substance, the “NO produced at pH 7.4” value (5 mg sample, pH 7.4, 37° C., 86 hour time span) is on record as 1.05 nmol. Further, the “kinetic order of the cumulative NO release profile” value (cumulative NO release, pH 4.9, 32° C., R^2 =0.9984) was “first order kinetics”. Also, the “calculated half life of NO release” value (first order fit of cumulative NO release, pH 4.9, 32° C.) is 210 h. Further, the “NO release in the first twenty hours” value (first twenty hours, pH 4.9, 32° C.) turned out to be 260 nmol. Moreover, the “NO loading, based on the theoretical maximum of 11,890 nmol” value (from cumulative NO release at pH 4.9, 32° C., 675.5 hours) came out at 38%. Besides, the “total NO released (cumulative NO release)” value (pH 4.9, 32° C., time span of 675.5 hours) is 4,610 nmol. Further, where the note is “pH 10.0, sample size 20.6 mg”, the “NO release at pH 10.0” value is recorded as “undetected”.
